Ki and EC50 data for 8 compounds are collected here from BindingDB's records for doi:10.1021/cb400468c (Massachusetts Institute of Technology, 2013).

Experiment [1] concerns the target T1, Gag-Pol polyprotein [484-582,I494L,I497V,V499I,D514N,E519D,R541K,D544E,Q553K,N572D,L573M] (Human immunodeficiency virus, UniProt Q9QBY3, D514N/D544E/E519D/I494L/I497V/L573M/N572D/Q553K/R541K/V499I).
T1 construct: 484-582
The experiment can be described thus: Inhibition Assay. The protocol: (§1) HIV protease inhibitor activities were determined by fluorescence resonance energy transfer (FRET) method. Protease substrate, Arg-Glu-(EDANS)-Ser-Gln-Asn-Tyr-Pro-Ile-Val-Gln-Lys(DABCYL)-Arg, was labeled with the energy transfer donor (EDANS) and acceptor (DABCYL) dyes at its two ends to perform FRET. Fluorescence measurements were carried out on an EnVision plate reader (PerkinElmer).

Experiment [2] concerns the target T2, Gag-Pol polyprotein [484-582,I494L,I497V,V499I,E519D,I534V,R541K,D544E,Q553K,A555V,L573M] (Human immunodeficiency virus, UniProt Q9QBY3, A555V/D544E/E519D/I494L/I497V/I534V/L573M/Q553K/R541K/V499I).
T2 construct: 484-582
Briefly: Inhibition Assay. The protocol:
as §1

The target in experiment [3] is T3, Gag-Pol polyprotein [484-582,I497V,V499I,E519D,G532V,I538V,R541K,D544E,Q553K,V566A,L573M] (Human immunodeficiency virus, UniProt Q9QBY3, D544E/E519D/G532V/I497V/I538V/L573M/Q553K/R541K/V499I/V566A).
T3 construct: 484-582
The experiment can be described thus: Inhibition Assay. The method, then: as §1

Experiment [4] has as its target T4, Gag-Pol polyprotein [484-582,I497V,V499I,E519D,R541K,D544E,Q553K,A555V,G557S,I568V,L574M,L573M] (Human immunodeficiency virus, UniProt Q9QBY3, A555V/D544E/E519D/G557S/I497V/I568V/L573M/L574M/Q553K/R541K/V499I).
T4 construct: 484-582
Briefly: Inhibition Assay. The protocol:
as §1

Another experiment has as its target HIV-1 protease (Human immunodeficiency virus, UniProt O90785). The experiment can be described thus: Inhibition Assay. The method, then:
as §1

Experiment [5] concerns the target T5, Gag-Pol polyprotein [489-892,N526H,R530K,V566I,I582L,V648I,Q690K,I723V,C750S,T788A,Q795E,T874A,V881I,P882Q] (Human immunodeficiency virus, UniProt P12497, C750S/I582L/I723V/N526H/P882Q/Q690K/Q795E/R530K/T788A/T874A/V566I/V648I/V881I).
T5 construct: 489-892
The experiment can be described thus: Drug Susceptibility Assay. The method, then:
(§2) Drug susceptibility assays were carried out by Monogram Bioscience against wild-type HIV-1 control and patient-derived strains of wild-type HIV-1 from clades A, B, and C, and two multi-drug-resistant HIV-1 variants.

The target in experiment [6] is T6, Gag-Pol polyprotein [489-892] (Human immunodeficiency virus, UniProt P12497).
T6 construct: 489-892
Briefly: Drug Susceptibility Assay. The method, then: as §2

The target of experiment [7] is HIV WT-A pol protein (wild-type clade A) (Human immunodeficiency virus 1, UniProt P12497). Briefly: Drug Susceptibility Assay. The method, then: as §2
In experiment [8] the target is HIV WT-C pol protein (wild-type clade C) (Human immunodeficiency virus, UniProt P12497). Briefly: Drug Susceptibility Assay. The protocol: as §2
For the next experiment, the target named is MDR1 (Human immunodeficiency virus, UniProt P12497). The experiment can be described thus: Drug Susceptibility Assay. The protocol: as §2
The target of a further experiment is MDRC4 (Human immunodeficiency virus, UniProt P12497). The experiment can be described thus: Drug Susceptibility Assay. The protocol: as §2

On to `COc1ccc(S(=O)(=O)N(CCCc2ccccc2)C[C@@H](O)[C@H](Cc2ccccc2)NC(=O)c2cccc(O)c2)cc1` [3-Hydroxy-N-[(1S,2R)-2-hydroxy-3-[[(4-methoxyphenyl)sulfonyl](3-phenylpropyl)amino]-1-(phenylmethyl)propyl]-benzamide (AF-78)], for which the Ki in [1] is 2.54 nM; in experiment [2], 5.89 nM; in experiment [3] it was 42.9 nM; in [4] it was 23.8 nM; on HIV-1 protease, 0.437 nM.

With `CC[C@H](C)CN(C[C@@H](O)[C@H](Cc1ccccc1)NC(=O)c1cccc(O)c1)S(=O)(=O)c1ccc(-c2ccno2)s1` [3-Hydroxy-N-[(1S,2R)-2-hydroxy-3-[[[5-(5-isoxazolyl)-2-thienyl]sulfonyl][(2S)-2-methylbutyl]amino]-1-(phenylmethyl)propyl]-benzamide (AF-71)], the inhibition constant (Ki) in [1] is 2.95 nM; in experiment [2], 30 nM; in experiment [3], 18.2 nM; in experiment [4], 44.8 nM; on HIV-1 protease, 3.33 nM.

Consider `CC[C@H](C)[C@H](NC(C)=O)C(=O)N[C@@H](Cc1ccccc1)[C@H](O)CN(CC(C)C)S(=O)(=O)c1ccc(OC)cc1` [(2S,3S)-2-(Acetylamino)-N-[(1S,2R)-2-hydroxy-3-[[(4-methoxyphenyl)sulfonyl](2-methylpropyl)amino]-1-(phenylmethyl)propyl]-3-methyl-pentanamide (AF-68)], for which the Ki came to 0.049 nM in experiment [1]; 0.144 nM in experiment [2]; 0.819 nM in experiment [3]; 1.03 nM in experiment [4]; 0.146 nM on HIV-1 protease. Besides, the EC50 in experiment [5] turned out to be 1.6 nM; in [6], 3.5 nM; in [7] it was 2.4 nM; in experiment [8], 3 nM; at MDR1, 15.1 nM; at MDRC4, 15.4 nM.

On to `CC[C@H](C)CN(C[C@@H](O)[C@H](Cc1ccccc1)NC(=O)C(NC(C)=O)[C@@H](C)CC)S(=O)(=O)c1ccc2ncsc2c1` (stereo partly drawn) [(2S,3S)-2-(Acetylamino)-N-[(1S,2R)-3-[(6-benzothiazolylsulfonyl)[(2S)-2-methylbutyl]amino]-2-hydroxy-1-(phenylmethyl)propyl]-3-methyl-pentanamide (AG-23)], for which the Ki was found to be 0.028 nM in experiment [1]; 0.092 nM in [2]; 0.376 nM in experiment [3]; 0.048 nM in experiment [4]; 0.021 nM on HIV-1 protease. Moreover, the EC50 in [5] stood at 1.9 nM; in [6], 2.7 nM; in [7], 2.3 nM; in [8], 3.5 nM; on MDR1, 7.2 nM; on MDRC4 it was 8.7 nM.

In the case of `O=C(N[C@@H](Cc1ccccc1)[C@H](O)CN(CCCc1ccccc1)S(=O)(=O)c1ccc2ncsc2c1)c1cccc(O)c1` [N-[(1S,2R)-3-[(6-Benzothiazolylsulfonyl)(3-phenylpropyl)amino]-2-hydroxy-1-(phenylmethyl)propyl]-3-hydroxy-benzamide (AF-69)], the Ki in experiment [1] came out at 2 nM; in experiment [2], 2.27 nM; in [3] it was 19.2 nM; in experiment [4] it was 9.96 nM; on HIV-1 protease it was 0.07 nM.

Take `O=C(N[C@@H](Cc1ccccc1)[C@H](O)CN(CC1CCCCC1)S(=O)(=O)c1ccc2ncsc2c1)c1cccc(O)c1` [N-[(1S,2R)-3-[(6-Benzothiazolylsulfonyl)(cyclohexylmethyl)amino]-2-hydroxy-1-(phenylmethyl)propyl]-3-hydroxy-benzamide (AF-72)]: the Ki in experiment [1] was determined as 0.383 nM; in experiment [2], 4.82 nM; in experiment [3] it was 1.33 nM; in [4] it was 2.75 nM; on HIV-1 protease it was 0.129 nM. For the same compound, the concentration giving a half-maximal response (EC50) in [5] amounted to 37.9 nM; in experiment [6] it was 63.7 nM; in experiment [7] it was 48.6 nM; in experiment [8], 94.6 nM; on MDR1 it was 99.1 nM; on MDRC4, 165 nM.

With `COc1ccc(S(=O)(=O)N(CC2CCCCC2)C[C@@H](O)[C@H](Cc2ccccc2)NC(=O)c2cccc(O)c2)cc1` [N-[(1S,2R)-3-[(Cyclohexylmethyl)[(4-methoxyphenyl)sulfonyl]amino]-2-hydroxy-1-(phenylmethyl)propyl]-3-hydroxy-benzamide (AF-77)], the Ki in [1] is 0.49 nM; in experiment [2] it was 3.4 nM; in experiment [3] it was 2.04 nM; in [4], 2.47 nM; on HIV-1 protease it was 0.546 nM. The 50% effective concentration (EC50) in [5] was determined as 22.4 nM; in [6] it was 47.3 nM; in experiment [7], 38.4 nM; in experiment [8] it was 65.7 nM; on MDR1 it was 86.9 nM; at MDRC4, 105 nM.

For `CC(C)CN(C[C@@H](O)[C@H](Cc1ccccc1)NC(=O)O[C@H]1CCOC1)S(=O)(=O)c1ccc(N)cc1` [VX-478], the EC50 is 1.8 nM in [5]; 3 nM in experiment [6]; 2.6 nM in experiment [7]; 3.7 nM in experiment [8]; 15.6 nM at MDR1; 17.5 nM at MDRC4.

In general, Ki refers to the equilibrium dissociation constant of an inhibitor or competing ligand from its target. High values mean a looser hold on the target, low ones a stronger hold on the target. By EC50 is commonly meant the concentration needed to bring the measured effect to its halfway point. A higher EC50 goes with a less potent agent.
